Assay results as given in patent US9062041B2 (Bayer Intellectual Property GmbH, priority 2011, dated 2015).

Key:
Format in all cases: cell-based
[1] = target: EP2 subtype of the human PGE2 receptor (Homo sapiens, UniProt P43116); assay: cAMP antagonism test on the human EP2 receptor (HTRF cAMP detection); conditions: hEP2 receptor, read-out: Antagonism hEP2 IC50
From the text: 1. Detection of Antagonism to the Human Prostaglandin E2 (Subtype EP2) Receptor Signal
(§1) The binding of PGE2 to the EP2 subtype of the human PGE2 receptor induces the activation of membrane-located adenylate cyclases and leads to the formation of cAMP. In the presence of the phosphodiesterase inhibitor IBMX, the cAMP accumulated owing to this stimulation and released by cell lysis is used in a competitive detection method. In this test, the cAMP present in the lysate competes with a fluorescence-labelled cAMP (cAMP-d2) for binding to an Eu cryptate-labelled anti-cAMP antibody.
(§2) In the absence of cellular cAMP, a maximal signal is produced, which is attributable to the binding of this cAMP-d2 molecule to the antibody. After excitation of the […] at 337 nm, there is a fluorescence resonance energy transfer (FRET) to the Eu cryptate molecules of the anti-cAMP antibody (labelled therewith), followed by a long-lasting emission signal at 665 nm (and at […]). Both signals are measured in a suitable measurement instrument with a time delay, i.e. after decay of the background fluorescence. Any increase in the low FRET signal caused by prostaglandin E2 administration (measured as well ratio change=emission665 nm/emission620 nm*10000) indicates the action of antagonists.
1.2.1. Test for Antagonism (Data Per Well of a 384-Well Plate):
(§3) To a test plate with the substance solutions already added (0.05 μl; 100% DMSO, concentration range from 0.8 nM-16.5 μM) were added 4 μl of a cAMP-d2/cell suspension (625000 cells/ml). After a 20-minute preincubation at room temperature (RT), 2 μl of a 3×PGE2 solution (1.5 nM, in PBS-IBMX) were added and incubated in the presence of the agonist for a further 60 mins at RT (volume: ˜6 μl). Next the reaction was stopped by addition of 2 μl of lysis buffer and incubated for a further 20 mins at RT before the actual measurement (volume: ˜8 μl).

[2] = target: EP4 subtype of the human PGE2 receptor (Homo sapiens, UniProt P35408); assay: cAMP antagonism test on the human EP4 receptor (HTRF cAMP detection); conditions: selectivity towards hEP4, IC50 measured by cAMP antagonism test
EP4 subtype of the human PGE2 receptor, sequence (P35408 whole entry): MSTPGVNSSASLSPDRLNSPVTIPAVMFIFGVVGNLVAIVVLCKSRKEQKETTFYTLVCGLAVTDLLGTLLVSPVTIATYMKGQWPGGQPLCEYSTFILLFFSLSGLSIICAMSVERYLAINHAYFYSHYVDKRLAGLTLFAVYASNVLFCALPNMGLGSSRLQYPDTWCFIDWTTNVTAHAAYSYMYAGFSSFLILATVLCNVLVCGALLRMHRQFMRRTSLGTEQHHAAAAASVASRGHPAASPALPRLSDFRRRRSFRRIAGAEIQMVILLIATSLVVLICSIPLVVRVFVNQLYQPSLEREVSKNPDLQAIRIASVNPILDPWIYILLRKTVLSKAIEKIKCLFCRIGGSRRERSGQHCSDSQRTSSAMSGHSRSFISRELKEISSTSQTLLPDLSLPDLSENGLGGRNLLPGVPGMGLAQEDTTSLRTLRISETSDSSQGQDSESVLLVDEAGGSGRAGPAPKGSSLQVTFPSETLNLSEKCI
From the text: 2. Detection of Antagonism to the Human Prostaglandin E2 (Subtype EP4) Receptor Signal
as §1, with “EP4” for “EP2”
as §2, with “cAMP” for “cAMP,”
2.2.1. Test for Antagonism (Data Per Well of a 384-Well Plate):
as §3, with “(312500” for “(625000”, “(0.3” for “(1.5”

human PGD receptor = target: T1, human PGD receptor (Homo sapiens, UniProt Q13258); assay: cAMP antagonism test on the human prostaglandin D receptor (HTRF cAMP detection); conditions: selectivity towards hDP, IC50 measured by cAMP antagonism test
T1 sequence (Q13258 1-359): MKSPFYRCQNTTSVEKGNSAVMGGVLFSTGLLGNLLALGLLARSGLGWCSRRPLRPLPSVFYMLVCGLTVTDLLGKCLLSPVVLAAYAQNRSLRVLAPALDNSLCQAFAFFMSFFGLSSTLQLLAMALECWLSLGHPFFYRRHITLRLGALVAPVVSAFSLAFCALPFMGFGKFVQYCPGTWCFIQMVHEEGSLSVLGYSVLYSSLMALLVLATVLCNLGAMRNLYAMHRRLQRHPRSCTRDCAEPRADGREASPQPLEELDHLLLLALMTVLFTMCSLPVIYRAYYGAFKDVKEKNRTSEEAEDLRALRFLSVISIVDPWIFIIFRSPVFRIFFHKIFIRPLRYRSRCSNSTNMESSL
From the text: 3. Detection of Antagonism to the Human Prostaglandin D Receptor Signal
as §1, with “of prostaglandin D2” for “of PGE2”, “the” for “the EP2 subtype of the”, “human PGD” for “human PGE2”
as §2
3.2.1. Test for Antagonism (Data Per Well of a 384-Well Plate):
as §3, with “3×PGD2” for “3×PGE2”, “(6” for “(1.5”, “30” for “60”

EP2 subtype of the human PGE2 receptor, sequence (P43116 whole entry): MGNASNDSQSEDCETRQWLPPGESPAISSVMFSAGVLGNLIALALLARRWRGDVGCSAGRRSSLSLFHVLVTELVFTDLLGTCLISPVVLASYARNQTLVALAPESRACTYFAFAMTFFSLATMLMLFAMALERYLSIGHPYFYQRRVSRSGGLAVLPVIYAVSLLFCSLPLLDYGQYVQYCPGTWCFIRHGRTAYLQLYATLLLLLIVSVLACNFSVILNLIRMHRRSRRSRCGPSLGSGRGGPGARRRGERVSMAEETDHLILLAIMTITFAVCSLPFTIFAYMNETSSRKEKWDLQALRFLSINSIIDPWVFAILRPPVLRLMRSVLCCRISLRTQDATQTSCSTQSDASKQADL

| Compound | IC50 [1] | Selectivity hEP2/hEP4 [2] | Selectivity hEP2/hDP (human PGD receptor) |
| --- | --- | --- | --- |
| Cc1c(C(=O)NCC(C)OCC2CC2)ccc2nn(CC3CCN(C(=O)c4ccc(Oc5ccc(F)cc5)cc4)CC3)cc12 (racemic) [Example 103, (+/−)-N-[2-(cyclo-propylmethoxy)-propyl]-2-({1-[4-(4-fluorophenoxy)-benzoyl]piperidin-4-yl}-methyl)-4-methyl-2H-indazol-5-carboxamide] | 595 nM | xx (xx: 10-100) | xx (xx: 10-100) |
| Cc1c(C(=O)NCC(C)OCC2CC2)ccc2nn(CC3CCN(C(=O)c4ccc(C(F)(F)F)cc4)CC3)cc12 (racemic) [Example 104, (+/−)-N-[2-(cyclo-propylmethoxy)-propyl]-4-methyl-2-({1-[4-(trifluoro-mcthyl)benzoyl]-piperidin-4-yl}-methyl)-2H-indazol-5-carboxamide] | 513 nM | xx (xx: 10-100) | xx (xx: 10-100) |
| Cc1c(C(=O)NCC(C)OCC2CC2)ccc2nn(CC3CCN(C(=O)c4ccc(-c5ccc(F)cc5)cc4)CC3)cc12 (racemic) [Example 105, (+/−)-N-[2-(cyclo-propylmethoxy)-propyl]-2-({l-[(4′-fluorobiphenyl-4-yl)carbonyl]-piperidin-4-yl}-methyl)-4-methyl-2H-indazol-5-carboxamide] | 285 nM | xx (xx: 10-100) | xx (xx: 10-100) |
| Cc1c(C(=O)NCC(C)OCC2CC2)ccc2nn(CC3CCN(C(=O)c4ccc(C5CC5)cc4)CC3)cc12 (racemic) [Example 106, (+/−)-2-{[1-(4-cyclopropylbenzoyl)piperidin-4-yl]-methyl}-N-[2-(cyclopropyl-methoxy)propyl]-4-methyl-2H-indazol-5-carboxamide] | 150 nM | xxx (xxx > 100) | xxx (xxx > 100) |
| Cc1c(C(=O)NCCN2CCC(F)(F)C2)ccc2nn(CC3CCN(C(=O)c4ccc(Cl)cc4)CC3)cc12 [Example 69, 2-{[1-(4-chlorobenzoyl)piperidin-4-yl]methyl}-N-[2-(3,3-difluoropyrrolidin-1-yl)ethyl]-4-methyl-2H-indazol-5-carboxamide] | 29 nM |  | xxx (xxx > 100) |
| Cc1c(C(=O)NCCN2CCC(F)(F)C2)ccc2nn(CC3CCN(C(=O)c4ccc(SC(F)(F)F)cc4)CC3)cc12 [Example 70, N-[2-(3,3-difluoropyrrolidin-1-yl)ethyl]-4-methyl-2-[(1-{4-[(trifluoromethyl)sulphanyl]benzoyl}piperidin-4-yl)methyl]-2H-indazol-5-carboxamide] | 49 nM |  | xxx (xxx > 100) |
| COCCNC(=O)c1ccc2nn(CC3CN(C(=O)c4ccc(SC(F)(F)F)cc4)C3)cc2c1C [Example 118, N-(2-methoxyethyl)-4-methyl-2-[(1-{4-[(trifluoromethyl)sulphanyl]benzoyl}azetidin-3-yl)methyl]-2H-indazol-5-carboxamide] | 8.17 nM |  | xxx (xxx > 100) |
| COCCNC(=O)c1ccc2nn(CC3CN(C(=O)c4ccc(OC(F)(F)F)cc4)C3)cc2c1C [Example 119, N-(2-methoxyethyl)-4-methyl-2-({1-[4-(trifluoromethoxy)benzoyl]azetidin-3-yl}methyl)-2H-indazol-5-carboxamide] | 13.2 nM |  | xxx (xxx > 100) |
| COCCNC(=O)c1ccc2nn(CC3CN(C(=O)c4ccc(Cl)c(C(F)(F)F)c4)C3)cc2c1OC [Example 256, 2-({1-[4-chloro-3-(trifluoromethyl)benzoyl]azetidin-3-yl}methyl)-4-methoxy-N-(2-methoxyethyl)-2H-indazol-5-carboxamide] | 107 nM | xxx (xxx > 100) |  |

The remaining lines, values ahead:

| IC50 [1] | Selectivity hEP2/hEP4 [2] | Selectivity hEP2/hDP (human PGD receptor) | Compound |
| --- | --- | --- | --- |
| 410 nM | xx (xx: 10-100) | xx (xx: 10-100) | Cc1c(C(=O)NCC(C)OCC2CC2)ccc2nn(CC3CCN(C(=O)c4ccc(Cl)cc4)CC3)cc12 (racemic) [Example 102, (+/−)-2-{[1-(4-chlorobenzoyl)piperidin-4-yl]methyl}-N-[2-(cyclopropylmethoxy)propyl]-4-methyl-2H-indazol-5-carboxamide] |
| 160 nM | xxx (xxx > 100) | xxx (xxx > 100) | COC(C)CNC(=O)c1ccc2nn(CC3CN(C(=O)c4ccc(Cl)cc4)C3)cc2c1C (racemic) [Example 138, (+/−)-2-{[1-(4-chlorobenzoyl)azetidin-3-yl]methyl}-N-(2-methoxypropyl)-4-methyl-2H-indazol-5-carboxamide] |
| 143 nM | xxx (xxx > 100) | xxx (xxx > 100) | Cc1c(C(=O)NCC2COCCO2)ccc2nn(CC3CN(C(=O)c4ccc(Cl)cc4)C3)cc12 (racemic) [Example 141, (+/−)-2-{[1-(4-chlorobenzoyl)azetidin-3-yl]methyl}-N-(1,4-dioxan-2-ylmethyl)-4-methyl-2H-indazol-5-carboxamide] |
| 50.8 nM | xxx (xxx > 100) | xxx (xxx > 100) | Cc1c(C(=O)NCC2CCCCO2)ccc2nn(CC3CN(C(=O)c4ccc(Cl)cc4)C3)cc12 (racemic) [Example 144, (+/−)-2-{[1-(4-chlorobenzoyl)azetidin-3-yl]methyl}-4-methyl-N-(3,4,5,6-tetrahydro-2H-pyran-2-ylmethyl)-2H-indazol-5-carboxamide] |
| 15.5 nM |  | xxx (xxx > 100) | COCCNC(=O)c1ccc2nn(CC3CN(C(=O)c4ccc(C(F)(F)F)cc4F)C3)cc2c1C [Example 120, 2-({1-[2-fluoro-4-(trifluoromethyl)benzoyl]azetidin-3-yl}methyl)-N-(2-methoxy-ethyl)-4-methyl-2H-indazol-5-carboxamide] |
